One data set deals with Beta-secretase 1 (Homo sapiens, UniProt P56817). Kind of data set: Inhibition of BACE1 (unknown origin).
A short description of data set [1]: Dissociation constant, pKa of the compound by potentiometric titration method. The class given is physicochemical.
Data set [2] is described as follows: Efflux ratio of apparent permeability in MDCK-MDR1 cells. The class given is ADME, cell-based, Canis lupus familiaris. The settings on record: dog.
Data set [3] is described as follows: Apparent permeability in MDCK-MDR1 cells. The settings on record: dog. The class given is ADME, cell-based, Canis lupus familiaris.
Data set [4] concerns the target Voltage-gated inwardly rectifying potassium channel KCNH2 (Homo sapiens, UniProt Q12809). Kind of data set: Inhibition of hERG. The class given is toxicity.
Data set [5] in a line: Inhibition of sodium channel (unknown origin). Set-up: species or system Homo sapiens.
A short description of data set [6]: Inhibition of calcium channel (unknown origin). Also on record: species or system Homo sapiens.

Beta-secretase 1, sequence (P56817 whole entry): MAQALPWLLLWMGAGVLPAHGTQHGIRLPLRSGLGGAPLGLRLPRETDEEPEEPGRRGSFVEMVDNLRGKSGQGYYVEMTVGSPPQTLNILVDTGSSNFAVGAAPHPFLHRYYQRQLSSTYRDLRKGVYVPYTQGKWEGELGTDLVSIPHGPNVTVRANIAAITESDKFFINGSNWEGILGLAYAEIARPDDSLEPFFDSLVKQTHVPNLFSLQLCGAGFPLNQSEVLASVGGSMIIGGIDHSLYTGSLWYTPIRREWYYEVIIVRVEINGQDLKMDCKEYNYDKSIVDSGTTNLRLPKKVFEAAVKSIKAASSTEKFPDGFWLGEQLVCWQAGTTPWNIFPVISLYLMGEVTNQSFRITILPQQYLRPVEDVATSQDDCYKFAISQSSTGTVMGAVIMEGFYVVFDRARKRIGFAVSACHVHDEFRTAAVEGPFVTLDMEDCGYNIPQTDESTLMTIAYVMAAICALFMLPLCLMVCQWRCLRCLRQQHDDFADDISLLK
Voltage-gated inwardly rectifying potassium channel KCNH2, sequence (Q12809 whole entry): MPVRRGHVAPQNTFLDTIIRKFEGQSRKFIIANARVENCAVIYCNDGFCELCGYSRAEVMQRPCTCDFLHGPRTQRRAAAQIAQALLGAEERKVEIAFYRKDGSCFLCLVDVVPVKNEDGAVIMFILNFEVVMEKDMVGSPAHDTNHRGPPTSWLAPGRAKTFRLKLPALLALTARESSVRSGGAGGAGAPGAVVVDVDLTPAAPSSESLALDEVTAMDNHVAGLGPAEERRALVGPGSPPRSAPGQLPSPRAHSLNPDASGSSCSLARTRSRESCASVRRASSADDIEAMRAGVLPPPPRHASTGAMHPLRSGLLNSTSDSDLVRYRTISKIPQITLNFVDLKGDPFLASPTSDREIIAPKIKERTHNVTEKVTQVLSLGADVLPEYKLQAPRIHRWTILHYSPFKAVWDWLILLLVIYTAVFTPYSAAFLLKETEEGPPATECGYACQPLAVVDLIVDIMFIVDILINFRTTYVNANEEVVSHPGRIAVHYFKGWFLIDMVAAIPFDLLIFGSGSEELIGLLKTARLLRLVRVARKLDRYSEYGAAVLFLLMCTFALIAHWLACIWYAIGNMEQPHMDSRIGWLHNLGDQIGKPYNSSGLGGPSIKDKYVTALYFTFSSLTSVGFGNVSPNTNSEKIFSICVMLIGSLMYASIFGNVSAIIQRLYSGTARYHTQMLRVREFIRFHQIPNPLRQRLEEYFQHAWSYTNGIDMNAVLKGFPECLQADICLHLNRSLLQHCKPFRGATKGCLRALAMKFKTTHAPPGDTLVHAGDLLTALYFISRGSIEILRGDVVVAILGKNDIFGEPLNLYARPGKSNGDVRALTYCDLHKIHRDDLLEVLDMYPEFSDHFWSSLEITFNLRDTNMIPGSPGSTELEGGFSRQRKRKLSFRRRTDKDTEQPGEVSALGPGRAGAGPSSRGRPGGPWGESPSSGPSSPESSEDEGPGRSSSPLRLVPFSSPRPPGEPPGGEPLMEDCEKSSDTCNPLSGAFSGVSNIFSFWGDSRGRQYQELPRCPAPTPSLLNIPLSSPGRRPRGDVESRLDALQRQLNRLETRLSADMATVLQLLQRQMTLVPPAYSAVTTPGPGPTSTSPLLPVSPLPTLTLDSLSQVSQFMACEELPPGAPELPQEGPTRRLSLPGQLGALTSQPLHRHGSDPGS

For `C[C@@]1(c2cc(-c3ccc(Cl)cn3)ccc2F)C[C@@H]2C[C@@H]2C(N)=N1`, the IC50 against Beta-secretase 1 stood at 96 nM. Also, the pKa in data set [1] is > 11.
On to `CN(C)C(=O)[C@]1(C)CC[C@@](CF)(c2cc(-c3ccc(F)cn3)ccc2F)N=C1N`, for which the efflux ratio in data set [2] is 52. The apparent permeability (Papp) in data set [3] worked out at 2.7 ×10⁻⁶ cm/s. Also, the IC50 in data set [4] was 8320 nM; in data set [5], > 10000 nM; in data set [6] it was > 10000 nM; at Beta-secretase 1 it was 66 nM. For the same compound, in data set [1], the pKa turned out to be 9.2.
Regarding `C[C@@]1(c2cc(-c3cnc(OCF)cn3)ccc2F)CCC(F)(F)C(N)=N1`, the half-inhibitory concentration (IC50) was > 10000 nM in data set [5], > 10000 nM in data set [6] and 12 nM at Beta-secretase 1.
For `C[C@@]1(c2cc(NC(=O)c3ccc(F)cn3)ccc2F)CC[C@@](CF)(S(C)(=O)=O)C(N)=N1`, the IC50 was 6460 nM in data set [5], > 10000 nM in data set [6] and 15 nM on Beta-secretase 1.
Consider `C[C@@]1(c2cc(-c3cc4c(cn3)OC(F)(F)O4)ccc2F)CC[C@@](C)(S(=O)(=O)C(F)(F)F)C(N)=N1`, for which the IC50 was > 10000 nM in data set [4], 170 nM in data set [5], < 100 nM in data set [6] and 5.9 nM on Beta-secretase 1. The same compound displayed a pKa in data set [1] of 7.4.
Consider `C[C@@]1(c2cc(-c3ccc(Cl)cn3)ccc2F)CCC2(CC2)C(N)=N1`, for which the IC50 against Beta-secretase 1 came to 31 nM. Further, the pKa in data set [1] is > 11.
With `COc1cnc(-c2ccc(F)c([C@]3(C)CC[C@@](C)(S(C)(=O)=O)C(N)=N3)c2)cn1`, the IC50 in data set [5] was 8710 nM; in data set [6], > 10000 nM; on Beta-secretase 1 it was 4 nM.
On the same counts, the results for `NC1=N[C@](CF)(c2cc(-c3cnc(OCF)cn3)ccc2F)CCC1(F)F` are > 10000 nM, > 10000 nM and 8.9 nM.
On to `C[C@@]1(c2nc(-c3ccc(F)cn3)cs2)CC[C@@](C)(S(C)(=O)=O)C(N)=N1`, for which the efflux ratio in data set [2] came to 22. For the same compound, the Papp in data set [3] was 37 ×10⁻⁶ cm/s. The compound further gave an IC50 against Beta-secretase 1 of 25 nM. The compound also displayed a pKa in data set [1] of 7.
As to `COc1cnc(-c2ccc(F)c([C@]3(C)CC[C@@](C)(C#N)C(N)=N3)c2)cn1`, the results for the IC50 (in data set [5]; in data set [6]; at Beta-secretase 1) were 4900 nM, 6610 nM and 9.8 nM, respectively.
As to `COc1cnc(C(=O)Nc2ccc(F)c([C@@]3(C)N=C(N)[C@](C)(S(C)(=O)=O)C[C@@H]3F)c2)cn1`, the 50% inhibitory concentration (IC50) in data set [5] and in data set [6] was > 10000 nM in each case.
For the compound `CC1CC[C@@](CF)(c2cc(-c3cc4c(cn3)OC(F)(F)O4)ccc2F)N=C1N` (stereo not given in full), the IC50 in data set [5] stood at 650 nM; in data set [6], 1950 nM; against Beta-secretase 1, 59 nM.
`C[C@@]1(S(C)(=O)=O)CC[C@@](CF)(c2cc(NC(=O)c3cnc(OCF)cn3)ccc2F)N=C1N`: the IC50 is 8510 nM in data set [5] and > 10000 nM in data set [6].
As to `COc1cnc(-c2ccc(F)c([C@]3(CF)CC[C@@](C)(C#N)C(N)=N3)c2)cn1`, the IC50 was > 10000 nM in data set [5], > 10000 nM in data set [6] and 54 nM on Beta-secretase 1.
As to `COc1cnc(-c2ccc(F)c([C@]3(C(F)F)CC[C@@](C)(C#N)C(N)=N3)c2)cn1`, the efflux ratio in data set [2] turned out to be 15. Besides, in data set [3], the Papp amounted to 54 ×10⁻⁶ cm/s. For the same compound, the IC50 in data set [4] was > 10000 nM; in data set [5] it was > 10000 nM; in data set [6], > 10000 nM; on Beta-secretase 1, 12 nM. This compound also yielded a pKa in data set [1] of 6.
As for `CN(C)S(=O)(=O)[C@]1(C)CC[C@@](CF)(c2cc(-c3ccc(F)cn3)ccc2F)N=C1N`, the IC50 in data set [5] is 2140 nM; in data set [6] it was > 10000 nM; at Beta-secretase 1 it was 4 nM.
At Beta-secretase 1, `C[C@@]1(S(C)(=O)=O)CC[C@@](CF)(c2nc(-c3cnc(OCF)cn3)ccc2F)N=C1N` had an IC50 of 38 nM. The compound further had a pKa in data set [1] of 7.6.
Take `COc1cnc(-c2ccc(F)c([C@]3(CF)CC[C@](C)(C#N)C(N)=N3)c2)cn1`: the IC50 was > 10000 nM in data set [5], > 10000 nM in data set [6] and 851 nM against Beta-secretase 1.

(Values after ChEMBL document CHEMBL5154668, “Modulating physicochemical properties of tetrahydropyridine-2-amine BACE1 inhibitors with electron-withdrawing groups: A systematic study” (Eur J Med Chem, 2022).)
